Reference: PubChem BioAssay AID248 (DTP/NCI, 2004)
Values joined by “and” are separate entries in the source; they are usually repeats but may differ in a detail not shown here. Identical values can stand only once. Inconclusive results and toxic doses are left out. No stated cut-off is given here; in the data, active means T/C of 150% or more; inactive means T/C below 125%.

Test system: L1210 leukemia ip in BDF1 mice, survival T/C
Experiment: NCI In Vivo Anticancer Drug Screen. Data for tumor model L1210 Leukemia (intraperitoneal) in B6D2F1 (BDF1) mice
Conditions: higher = longer survival
Summary of the method: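 Transplantable tumor model; survival measured in treated vs vehicle control mice. Value = treated/control.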

Measured: T/C

CN(Cc1cnc2nc(N)nc(N)c2n1)c1ccc(C(=O)N[C@@H](CCC(=O)O)C(=O)O)cc1
inactive: endpoint: mean survival time, dose: 0.02 mg/kg/injection, schedule: Q01DX Z (ip), vehicle: saline 94 % of control | endpoint: mean survival time, dose: 0.03 mg/kg/injection, schedule: Q#A X Z (ip), vehicle: saline 107 % of control | endpoint: mean survival time, dose: 0.08 mg/kg/injection, schedule: Q01DX009 (ip), vehicle: sodium bicarbonate 99 % of control and 108 % of control | endpoint: mean survival time, dose: 0.1 mg/kg/injection, schedule: Q03HX008 (ip), vehicle: sodium bicarbonate 105 % of control | endpoint: mean survival time, dose: 0.1 mg/kg/injection, schedule: Q## X008 (other), vehicle: sodium bicarbonate 105 % of control | endpoint: mean survival time, dose: 0.12 mg/kg/injection, schedule: Q01DX Z (ip), vehicle: saline 108 % of control | endpoint: mean survival time, dose: 0.13 mg/kg/injection, schedule: Q01DX Z (sc), vehicle: saline 110 % of control | endpoint: mean survival time, dose: 0.13 mg/kg/injection, schedule: Q03HX016 (ip), vehicle: other 107 % of control | endpoint: mean survival time, dose: 0.15 mg/kg/injection, schedule: Q03HX008 (ip), vehicle: sodium bicarbonate 109 % of control | endpoint: mean survival time, dose: 0.15 mg/kg/injection, schedule: Q## X008 (other), vehicle: sodium bicarbonate 109 % of control | endpoint: mean survival time, dose: 0.19 mg/kg/injection, schedule: Q01DX009 (ip), vehicle: sodium bicarbonate 102 % of control | endpoint: mean survival time, dose: 0.19 mg/kg/injection, schedule: Q## X Z (ip), vehicle: saline 102 % of control | endpoint: mean survival time, dose: 0.38 mg/kg/injection, schedule: Q## X Z (ip), vehicle: saline 111 % of control | endpoint: mean survival time, dose: 0.49 mg/kg/injection, schedule: Q03HX003 (ip), vehicle: other 108 % of control | endpoint: mean survival time, dose: 0.49 mg/kg/injection, schedule: Q03HX004 (ip), vehicle: other 104 % of control | endpoint: mean survival time, dose: 0.49 mg/kg/injection, schedule: Q03HX005 (ip), vehicle: other 107 % of control | endpoint: mean survival time, dose: 0.49 mg/kg/injection, schedule: Q03HX006 (ip), vehicle: other 110 % of control | endpoint: mean survival time, dose: 0.5 mg/kg/injection, schedule: Q01DX006 (iv), vehicle: saline 112 % of control | endpoint: mean survival time, dose: 0.5 mg/kg/injection, schedule: Q07DX003 (ip), vehicle: saline 107 % of control | endpoint: mean survival time, dose: 0.73 mg/kg/injection, schedule: Q01DX001 (ip), vehicle: other 94 % of control | endpoint: mean survival time, dose: 0.73 mg/kg/injection, schedule: Q03HX002 (ip), vehicle: other 104 % of control | endpoint: mean survival time, dose: 0.73 mg/kg/injection, schedule: Q03HX003 (ip), vehicle: other 102 % of control | endpoint: mean survival time, dose: 0.73 mg/kg/injection, schedule: Q03HX004 (ip), vehicle: other 107 % of control | endpoint: mean survival time, dose: 0.73 mg/kg/injection, schedule: Q03HX006 (ip), vehicle: other 109 % of control | endpoint: mean survival time, dose: 0.75 mg/kg/injection, schedule: Q## X Z (ip), vehicle: other 108 % of control | endpoint: mean survival time, dose: 0.9 mg/kg/injection, schedule: Q07DX003 (ip), vehicle: saline 102 % of control | endpoint: mean survival time, dose: 1.1 mg/kg/injection, schedule: Q01DX001 (ip), vehicle: other 95 % of control | endpoint: mean survival time, dose: 1.1 mg/kg/injection, schedule: Q03HX002 (ip), vehicle: other 112 % of control | endpoint: mean survival time, dose: 1.1 mg/kg/injection, schedule: Q03HX003 (ip), vehicle: other 107 % of control | endpoint: mean survival time, dose: 1.1 mg/kg/injection, schedule: Q03HX005 (ip), vehicle: other 109 % of control | endpoint: mean survival time, dose: 1.5 mg/kg/injection, schedule: Q01DX001 (ip), vehicle: water 109 % of control and 110 % of control | endpoint: mean survival time, dose: 1.62 mg/kg/injection, schedule: Q03HX002 (ip), vehicle: other 108 % of control | endpoint: mean survival time, dose: 1.62 mg/kg/injection, schedule: Q03HX003 (ip), vehicle: other 109 % of control | endpoint: mean survival time, dose: 1.8 mg/kg/injection, schedule: Q07DX003 (ip), vehicle: saline 107 % of control | endpoint: mean survival time, dose: 2.0 mg/kg/injection, schedule: Q01DX001 (ip), vehicle: saline 107 % of control | endpoint: mean survival time, dose: 2.25 mg/kg/injection, schedule: Q01DX001 (ip), vehicle: water 111 % of control | endpoint: mean survival time, dose: 2.25 mg/kg/injection, schedule: Q## X006 (ip), vehicle: other 108 % of control | endpoint: mean survival time, dose: 3.4 mg/kg/injection, schedule: Q01DX009 (ip), vehicle: sodium bicarbonate 96 % of control | endpoint: mean survival time, dose: 3.5 mg/kg/injection, schedule: Q07DX003 (ip), vehicle: saline 111 % of control | endpoint: mean survival time, dose: 4.0 mg/kg/injection, schedule: Q01DX009 (ip), vehicle: other 93 % of control | endpoint: mean survival time, dose: 4.0 mg/kg/injection, schedule: Q01DX009 (ip), vehicle: sodium bicarbonate 95 % of control | endpoint: mean survival time, dose: 4.0 mg/kg/injection, schedule: Q01DX Z (oral), vehicle: saline 109 % of control | endpoint: mean survival time, dose: 4.0 mg/kg/injection, schedule: Q01DX Z (sc), vehicle: saline 109 % of control | endpoint: mean survival time, dose: 4.0 mg/kg/injection, schedule: Q12HX007 (ip), vehicle: other 109 % of control | endpoint: mean survival time, dose: 4.0 mg/kg/injection, schedule: Q#A X Z (ip), vehicle: saline 112 % of control | endpoint: mean survival time, dose: 5.0 mg/kg/injection, schedule: Q01DX009 (ip), vehicle: sodium bicarbonate 105 % of control | endpoint: mean survival time, dose: 6.0 mg/kg/injection, schedule: Q12HX005 (ip), vehicle: other 104 % of control | endpoint: mean survival time, dose: 6.0 mg/kg/injection, schedule: Q12HX006 (ip), vehicle: other 102 % of control | endpoint: mean survival time, dose: 6.3 mg/kg/injection, schedule: Q01DX009 (ip), vehicle: saline 108 % of control | endpoint: mean survival time, dose: 7.2 mg/kg/injection, schedule: Q## X032 (ip), vehicle: water 102 % of control | endpoint: mean survival time, dose: 8.0 mg/kg/injection, schedule: Q01DX006 (ip), vehicle: other 110 % of control | endpoint: mean survival time, dose: 8.0 mg/kg/injection, schedule: Q01DX007 (ip), vehicle: other 111 % of control | endpoint: mean survival time, dose: 8.0 mg/kg/injection, schedule: Q01DX008 (ip), vehicle: other 100 % of control | endpoint: mean survival time, dose: 8.0 mg/kg/injection, schedule: Q01DX009 (oral), vehicle: other 107 % of control | endpoint: mean survival time, dose: 8.0 mg/kg/injection, schedule: Q01DX015 (ip), vehicle: other 102 % of control | endpoint: mean survival time, dose: 8.0 mg/kg/injection, schedule: Q01DX Z (oral), vehicle: saline 97 % of control | endpoint: mean survival time, dose: 9.0 mg/kg/injection, schedule: Q01DX005 (ip), vehicle: other 100 % of control | endpoint: mean survival time, dose: 9.0 mg/kg/injection, schedule: Q12HX004 (ip), vehicle: other 111 % of control | endpoint: mean survival time, dose: 9.0 mg/kg/injection, schedule: Q## X008 (ip), vehicle: other 102 % of control | endpoint: mean survival time, dose: 13.0 mg/kg/injection, schedule: Q01DX004 (ip), vehicle: other 101 % of control | endpoint: mean survival time, dose: 13.0 mg/kg/injection, schedule: Q01DX005 (ip), vehicle: other 102 % of control | endpoint: mean survival time, dose: 13.0 mg/kg/injection, schedule: Q03HX005 (ip), vehicle: other 100 % of control | endpoint: mean survival time, dose: 13.0 mg/kg/injection, schedule: Q12HX004 (ip), vehicle: other 94 % of control | endpoint: mean survival time, dose: 13.5 mg/kg/injection, schedule: Q## X008 (ip), vehicle: other 93 % of control | endpoint: mean survival time, dose: 16.0 mg/kg/injection, schedule: Q03HX008 (ip), vehicle: other 98 % of control | endpoint: mean survival time, dose: 20.0 mg/kg/injection, schedule: Q01DX003 (ip), vehicle: other 101 % of control | endpoint: mean survival time, dose: 20.0 mg/kg/injection, schedule: Q## X008 (ip), vehicle: other 102 % of control | endpoint: mean survival time, dose: 30.0 mg/kg/injection, schedule: Q01DX003 (ip), vehicle: other 102 % of control | endpoint: mean survival time, dose: 30.0 mg/kg/injection, schedule: Q04DX004 (ip), vehicle: other 96 % of control | endpoint: mean survival time, dose: 32.0 mg/kg/injection, schedule: Q01DX001 (sc), vehicle: other 112 % of control | endpoint: mean survival time, dose: 40.0 mg/kg/injection, schedule: Q04DX003 (ip), vehicle: sodium bicarbonate 95 % of control | endpoint: mean survival time, dose: 45.0 mg/kg/injection, schedule: Q01DX002 (ip), vehicle: other 109 % of control | endpoint: mean survival time, dose: 67.0 mg/kg/injection, schedule: Q01DX002 (ip), vehicle: other 98 % of control | endpoint: mean survival time, dose: 67.0 mg/kg/injection, schedule: Q12HX002 (ip), vehicle: other 100 % of control | endpoint: mean survival time, dose: 70.0 mg/kg/injection, schedule: Q04DX002 (ip), vehicle: sodium bicarbonate 99 % of control | endpoint: mean survival time, dose: 112.0 mg/kg/injection, schedule: Q07DX003 (ip), vehicle: saline 97 % of control | endpoint: mean survival time, dose: 128.0 mg/kg/injection, schedule: Q01DX001 (oral), vehicle: other 108 % of control | endpoint: mean survival time, dose: 150.0 mg/kg/injection, schedule: Q03HX002 (ip), vehicle: other 93 % of control | endpoint: mean survival time, dose: 200.0 mg/kg/injection, schedule: Q04DX002 (ip), vehicle: saline 111 % of control | endpoint: mean survival time, dose: 250.0 mg/kg/injection, schedule: Q01DX001 (ip), vehicle: water 112 % of control | endpoint: mean survival time, dose: 256.0 mg/kg/injection, schedule: Q01DX001 (oral), vehicle: other 97 % of control | endpoint: mean survival time, dose: 256.0 mg/kg/injection, schedule: Q01DX001 (sc), vehicle: other 98 % of control | endpoint: mean survival time, dose: 300.0 mg/kg/injection, schedule: Q01DX001 (ip), vehicle: water 105 % of control | endpoint: mean survival time, dose: 375.0 mg/kg/injection, schedule: Q01DX001 (ip), vehicle: water 101 % of control | endpoint: mean survival time, dose: 512.0 mg/kg/injection, schedule: Q01DX001 (oral), vehicle: other 111 % of control | endpoint: mean survival time, dose: 37.5 micrograms/kg/injection, schedule: Q01DX009 (ip), vehicle: saline 104 % of control and 110 % of control | endpoint: mean survival time, dose: 70.0 micrograms/kg/injection, schedule: Q01DX Z (ip), vehicle: carboxymethylcellulose (CMC) 97 % of control | endpoint: mean survival time, dose: 75.0 micrograms/kg/injection, schedule: Q01DX009 (ip), vehicle: saline 107 % of control and 110 % of control | endpoint: mean survival time, dose: 100.0 micrograms/kg/injection, schedule: Q01DX015 (ip), vehicle: other 105 % of control | endpoint: mean survival time, dose: 140.0 micrograms/kg/injection, schedule: Q01DX Z (ip), vehicle: carboxymethylcellulose (CMC) 110 % of control | endpoint: mean survival time, dose: 150.0 micrograms/kg/injection, schedule: Q01DX015 (ip), vehicle: other 108 % of control | endpoint: mean survival time, dose: 6000.0 micrograms/kg/injection, schedule: Q01DX009 (ip), vehicle: Klucel (hydroxypropylcellulose) (HPC) 100 % of control | endpoint: median survival time, dose: 5.0 mg/kg/injection, schedule: Q01DX009 (ip), vehicle: other 110 % of control | endpoint: median survival time, dose: 8.0 mg/kg/injection, schedule: Q01DX001 (ip), vehicle: sodium bicarbonate 111 % of control | endpoint: median survival time, dose: 32.0 mg/kg/injection, schedule: Q01DX001 (ip), vehicle: sodium bicarbonate 110 % of control
